Where “and” joins values, the source holds several entries; their conditions need not be identical. Equal entries are not always repeated.
Key:
[1] = Population pharmacokinetic (PopPK) model of SAF-189s plasma concentrations (NONMEM); assay type: in vivo, human
Protocol: The population PK analysis included data from one phase I study of SAF-189s conducted with healthy subjects (study STL31147; n = 24) and one phase I/II study conducted with Chinese patients having ALK+/ROS1+ advanced NSCLC (study SAF001; n = 299). STL31147 was a single-center, randomized, open-label, two-period (fed and fasting), and two-sequence crossover study on healthy Chinese adults. The volunteers received SAF-189s at a dose of 160 mg orally once in each period, with a washout period of 14 days. Blood samples (3 mL) were collected after each SAF-189s administration at 0 (predose), 1, 2, 3, 4, 6, 8, 10, 12, 24, 48, 72, 120, and 168 h post dosing. SAF001 was a multicenter, open-label, and single-arm phase I/II study to evaluate the safety, tolerability, pharmacokinetics, and antitumor activity of SAF-189s in patients with advanced ALK+ NSCLC (phase I) and ALK+/ROS1+ NSCLC (phase II). In the dose escalation portion, the study treatment included a single-agent 3-day PK run-in period and a continuous treatment period. The dosing regimens were 20, 40, 80, 120, 160, and 210 mg QD for 21 days in 21-day cycles during the continuous treatment period. In phase II, the patients received 80, 120, 160, and 210 mg of SAF-189s (phase IIa) or 160 mg (phase IIb) QD over 21-day cycles.
(§1) All studies were conducted in accordance with the Good Clinical Practice guidelines and Declaration of Helsinki. The protocols were approved by the independent ethics committee of each investigation site, and all subjects provided informed consent. The tumor responses were assessed by the IRC based on the Response Evaluation Criteria in Solid Tumors (RECIST) 1.1 conditions. The exposure–efficacy analyses of SAF-189s were conducted based on data from patients in the SAF001 study to explore the relationships between systemic exposure and efficacy endpoints, including the ORR, PFS, and duration of response (DOR). The exposure–safety analyses of SAF-189s were conducted based on data from patients in the SAF001 study to explore the relationships between the systemic exposure and safety endpoints, including the adverse events (AEs) of interest. In these studies, the SAF-189s plasma concentrations were analyzed using validated liquid chromatography tandem mass spectrometry within the assay range of 0.5–150 ng mL^–1.
Dataset preparation and exploratory graphical analyses were performed using R (version 4.2.0) and SAS® (version 9.4, Institute Inc., Cary, NC, United States). The PK data of SAF-189s were pooled and analyzed using a non-linear mixed-effects model. The PopPK analysis was conducted using NONMEM® software (version 7.3, ICON, Hanover, MD, United States) with first-order conditional estimations with interactions (FOCE-I). Following graphical exploratory analysis, one- and two-compartment models were evaluated; several absorption models were then tested, including first-order, zero-order, sequential zero- and first-order, and parallel first-order models with and without a lag absorption time; based on the characteristics of the elimination phase of the concentration–time profiles of SAF-189s, the linear, non-linear, and time-dependent elimination models ([Lau et al., 2019]; [Kratochwil et al., 2021]) were investigated. Interindividual variance (IIV) was then described as a log-normal distribution, and the covariance between the IIV parameters was assessed. Residual variability was assessed by comparing the proportional, additive, and combined error models. Owing to the low proportion (<1%) of post-administration samples with concentrations below the quantification limit (BQL) of the assay, the BQL data were excluded from the PopPK model development. Model selection was based on the objective function value (OFV), goodness-of-fit (GOF) plot, and robustness of parameter estimates. The ETA shrinkage was also taken into consideration when evaluating the models.
The covariates were prespecified based on their physiological and clinical relevance. […]

[2] = Adverse events in patients of study SAF001; assay type: in vivo, human
Protocol: as §1
The exposure–safety relationships were characterized using the exposure metrics to the first occurrence of an event. The AEs of interest selected for analysis included hyperglycemia and proteinuria. The individual post hoc PK parameters from the final PopPK model and the first dosage were used to calculate the Cmin,ss, Cmax,ss, and AUCss at steady state, which were used as the exposure metrics. The exposure–safety analysis was performed using a logistic regression modeling approach.

[3] = 5th percentile age (25 years) vs median age (53 years)
[4] = 95th percentile age (71 years) vs median age (53 years)
[5] = ALKPOT 2 or 3 or 4 vs reference 1
[6] = ALKPOT 6 (healthy) vs reference 1
[7] = age 25 year vs reference 53 year, Figure 4
[8] = age 71 year vs reference 53 year, Figure 4

Cc1cc(Nc2ncc(Cl)c(Nc3ccccc3S(=O)(=O)C(C)C)n2)c2c(c1C1CCN(C)CC1)C[C@@H](C)O2 [SAF-189s]
AUCss geometric mean ([1]; 160 mg QD dose): 2,374 ng∙h mL^–1
AUC decrease [1, 3]: 21%
CL/F increase [1, 3]: 27%
AUC increase [1, 4]: 10%
CL/F decrease [1, 4]: 8.8%
AUCss(ug*h/L) Ratio [1, 5]: 1.18
V/F(L) Ratio [1, 5]: 0.734
AUCss(ug*h/L) Ratio ([1]; ALKPOT 5 (ROS1) vs reference 1): 1.06
V/F(L) Ratio ([1]; ALKPOT 5 (ROS1) vs reference 1): 0.917
AUCss(ug*h/L) Ratio [1, 6]: 0.979
V/F(L) Ratio [1, 6]: 0.784
AUCss higher ([1]; ALKPOT = 2, 3, 4 compared to ALKPOT = 1): 18%
V/F reduction ([1]; ALKPOT = 2, 3, 4 relative to ALKPOT = 1): 26.6%
AUCss higher ([1]; ALKPOT = 5 compared to ALKPOT = 1): 6%
V/F reduction ([1]; ALKPOT = 5 relative to ALKPOT = 1): 8.3%
V/F reduction ([1]; ALKPOT = 6 (healthy subjects) relative to ALKPOT = 1): 21.6%
AUCss lower ([1]; ALKPOT = 6 compared to ALKPOT = 1): 2.1%
effect of prior anticancer therapy on AUCss ([1]; ALKPOT covariate): less than 20%
half-life ([1]; after the first dose, typical subjects (median age 53 years, ALK+ without previous ALK inhibitor treatment)): 34.6 h
AUCss(ug*h/L) Ratio [1, 7]: 0.79
CL/F(L/h) Ratio [1, 7]: 1.27
AUCss(ug*h/L) Ratio [1, 8]: 1.1
CL/F(L/h) Ratio [1, 8]: 0.912
AUCss median value ([1]; exposure–safety analysis, all patients): 2,233 ng∙h mL^–1
ALAG1 (tlag) typical value ([1]; final PopPK model estimate): 0.483 (±0.0306) h and 0.483 h
CL1/F typical value ([1]; final PopPK model estimate): 64 (±1.51) L h^–1 and 64 L h^–1
CL2/F typical value ([1]; final PopPK model estimate): 40.3 (±6.89) L h^–1 and 40.3 L h^–1
KA typical value ([1]; final PopPK model estimate): 0.501 (±0.0444) h^−1
V/F typical value ([1]; final PopPK model estimate): 5,210(±339) L and 5,210 L
KA typical value ([1]; final PopPK model estimate, Table 2): 0.501 L h^–1
Interindividual variability ω^2 ALAG1 ([1]; final model estimate): 0.12
Interindividual variability ω^2 CL ([1]; final model estimate): 0.138
Interindividual variability ω^2 KA ([1]; final model estimate): 0.279
Interindividual variability ω^2 V ([1]; final model estimate): 0.125
ALKPOT = 6 on V/F ([1]; healthy subjects, final model estimate): 0.784
ALAG1 bootstrap estimate ([1]; non-parametric bootstrap): 0.491 h
ALKPOT = 2,3,4 on V/F bootstrap estimate ([1]; non-parametric bootstrap): 0.724
ALKPOT = 5 on V/F bootstrap estimate ([1]; non-parametric bootstrap): 0.905
ALKPOT = 6 on V/F bootstrap estimate ([1]; non-parametric bootstrap): 0.782
CL1/F bootstrap estimate ([1]; non-parametric bootstrap): 64 L h^–1
CL2/F bootstrap estimate ([1]; non-parametric bootstrap): 40.5 L h^–1
Interindividual variability ω^2 ALAG1 bootstrap estimate ([1]; non-parametric bootstrap): 0.106
Interindividual variability ω^2 CL bootstrap estimate ([1]; non-parametric bootstrap): 0.138
Interindividual variability ω^2 KA bootstrap estimate ([1]; non-parametric bootstrap): 0.276
Interindividual variability ω^2 V bootstrap estimate ([1]; non-parametric bootstrap): 0.121
KA bootstrap estimate ([1]; non-parametric bootstrap): 0.504 L h^–1
Kout bootstrap estimate ([1]; non-parametric bootstrap): 1.35 day⁻¹
V/F bootstrap estimate ([1]; non-parametric bootstrap): 5,199 L
ALKPOT = 5 on V/F ([1]; others (ROS1+ patients or unknown), final model estimate): 0.917
ALKPOT = 2,3,4 on V/F ([1]; patients with previous ALK inhibitor treatment, final model estimate): 0.734
Cmin,ss ([1]; quartile 1, estimated using the most prevalent dose): 18–60.7 ng mL^–1
Cmin,ss ([1]; quartile 2, estimated using the most prevalent dose): 60.7–79 ng mL^–1
Cmin,ss ([1]; quartile 3, estimated using the most prevalent dose): 79–108 ng mL^–1
Cmin,ss ([1]; quartile 4, estimated using the most prevalent dose): 108–182 ng mL^–1
half-life ([1]; steady state after multiple administrations, typical subjects): approximately 56.4 h
Kout ([1]; time-varying inhibition rate constant): 1.35 (±0.421) day^−1
Kout typical value ([1]; time-varying inhibition rate constant, Table 2): 1.35 day⁻¹
tolerability ([2]; 160 mg QD dosing regimen): well tolerated
incidence of drug-related TEAE leading to permanent discontinuation ([2]; 160 mg dose group): 2%
incidence of grade ≥3 TEAE ([2]; 160 mg dose group, ALK+ and ROS1+ patients (n = 153)): less than 9.15%
tolerability ([2]; 210 mg dose vs other lower doses): less tolerated
incidence rate of hyperglycemia ([2]; SAF001 patients, any grade): 55.74%
Diarrhea, number of patients (%) ([2]; any grade, N = 296): 65 (21.96%)
Hypercholesterolemia or cholesterol increase, number of patients (%) ([2]; any grade, N = 296): 111 (37.50%)
Hyperglycemia, number of patients (%) ([2]; any grade, N = 296): 165 (55.74%)
Nausea, number of patients (%) ([2]; any grade, N = 296): 112 (37.84%)
Proteinuria, number of patients (%) ([2]; any grade, N = 296): 90 (30.41%)
Vomiting, number of patients (%) ([2]; any grade, N = 296): 102 (34.46%)
Diarrhea, number of patients (%) ([2]; ≥ Grade 2, N = 296): 17 (5.74%)
Hypercholesterolemia or cholesterol increase, number of patients (%) ([2]; ≥ Grade 2, N = 296): 27 (9.12%)
Hyperglycemia, number of patients (%) ([2]; ≥ Grade 2, N = 296): 82 (27.70%)
Nausea, number of patients (%) ([2]; ≥ Grade 2, N = 296): 8 (2.70%)
Proteinuria, number of patients (%) ([2]; ≥ Grade 2, N = 296): 28 (9.46%)
Vomiting, number of patients (%) ([2]; ≥ Grade 2, N = 296): 15 (5.07%)
